# Measured values published in doi:10.1101/2025.03.14.643303, “A genome-scale drug discovery pipeline uncovers new therapeutic targets and a unique p97 allosteric binding site in Schistosoma mansoni” (bioRxiv, 2025).
# Entries after “also recorded” stand apart in the source; their conditions may differ. Read-outs that look alike come from different tables or passages of the source.
# How the values were obtained:
# adult S. mansoni worms [1] = tested on: adult S. mansoni worms; set-up: method as in PMID 32973031; conditions: schistosomes in vitro; cited from earlier work
# [2] = molecular target: S. mansoni p97 (Smp_018240) (Schistosoma mansoni, UniProt G4M0P7); assay: biochemical; conditions: for Fold Selectivity: H. sapiens vs S. mansoni p97 IC50
# Sequence of S. mansoni p97 (Smp_018240) (G4M0P7 entry or part of it): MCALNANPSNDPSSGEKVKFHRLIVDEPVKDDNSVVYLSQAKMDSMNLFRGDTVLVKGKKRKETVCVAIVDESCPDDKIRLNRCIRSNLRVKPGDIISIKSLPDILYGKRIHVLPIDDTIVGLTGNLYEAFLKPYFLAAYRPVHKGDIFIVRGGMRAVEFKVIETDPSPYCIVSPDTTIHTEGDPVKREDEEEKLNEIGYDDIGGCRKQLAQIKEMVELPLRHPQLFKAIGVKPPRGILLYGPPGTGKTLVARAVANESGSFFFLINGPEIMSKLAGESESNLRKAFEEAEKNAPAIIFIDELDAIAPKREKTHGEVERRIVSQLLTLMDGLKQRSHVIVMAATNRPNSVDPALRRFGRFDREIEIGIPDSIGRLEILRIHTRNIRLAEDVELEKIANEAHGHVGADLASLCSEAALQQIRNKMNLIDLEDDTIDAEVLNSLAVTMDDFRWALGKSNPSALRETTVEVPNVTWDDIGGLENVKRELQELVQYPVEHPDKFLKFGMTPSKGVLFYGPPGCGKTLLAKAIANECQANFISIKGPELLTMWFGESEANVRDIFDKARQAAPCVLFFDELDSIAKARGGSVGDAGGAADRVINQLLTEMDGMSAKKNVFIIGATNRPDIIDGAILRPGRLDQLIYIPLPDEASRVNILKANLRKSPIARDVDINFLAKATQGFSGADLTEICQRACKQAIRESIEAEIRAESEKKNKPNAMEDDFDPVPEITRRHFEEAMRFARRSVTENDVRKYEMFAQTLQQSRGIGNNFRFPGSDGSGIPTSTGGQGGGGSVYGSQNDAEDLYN
# Procedure: E. coli BL21 (DE3) containing the desired plasmid were grown in LB medium containing […] kanamycin while shaking at 37 °C to an OD600 of 0.6–0.8. The temperature was reduced to 18°C and 0.8 mM isopropyl-beta-D-thiogalactopyranoside (IPTG) was added. The bacterial culture was harvested 16hr later by centrifugation. The resulting pellet was suspended in 60 mL lysis buffer/2L bacterial culture [20 mM Tris (pH 7.4), 300 mM NaCl, 5 mM MgCl2, 20 mM imidazole, 1% Triton X-100, 1 mg/mL lysozyme, 10% glycerol, 3 mM β-mercaptoethanol, 0.2 mM PMSF, and protease inhibitor tablet (Roche)]. […] The lysate was centrifuged at 40,000 × rpm for 35 min at 4°C. The resulting supernatant was incubated with Ni-NTA beads equilibrated to lysis buffer for 1 hr at 4°C before being loaded onto a gravity column. The bead bed was washed with wash buffer [20 mM Tris (pH 7.4), 500 mM NaCl, 5 mM MgCl2, 40 mM imidazole, 0.05% Triton X-100, 10% glycerol, 3 mM β-mercaptoethanol, 0.2 mM PMSF, 0.001 mg/mL Aprotinin, and 0.002 mg/mL Leupeptin], then eluted in the same buffer with 250 mM imidazole in wash buffer. Fractions containing p97 were concentrated using Pierce Protein Concentrators (100k MWCO) and loaded onto a gel-filtration column (Superdex 200PG) and eluted using SEC buffer [20 mM Tris (pH 7.4), 180 mM NaCl, 5 mM MgCl2, and 10% glycerol] at 0.5 mL/min flow rate on a BioRad NGC Chromatography System. Fractions corresponding to an apparent molecular weight of 500 – 600 kDa were collected and analyzed by 4–20% SDS/PAGE to evaluate purity. Concentration was determined using a BSA standard. Fractions containing purified protein were aliquoted, snap frozen in liquid nitrogen, and stored at −80 °C until use.
# For manual ATP consumption assays, 1 μM p97 was incubated with 1% DMSO or inhibitor (1% DMSO final) in assay buffer [50 mM Tris (pH 7.5), 20 mM MgCl2, 1 mM EDTA, 0.5 mM tris(2-carboxyethyl)phosphine (TCEP)] for 5 minutes prior to the addition of 20 μM ATP in a 384-well plate for a total reaction volume of 10 μL, and a final concentration of 500nM enzyme and 10 μM ATP. The reaction was allowed to proceed for 50 minutes at room temperature before adding equivalent volume of Kinase-Glo Plus reagent (Promega), and a further incubation of 10 minutes in the dark.
# IC50 values were calculated using GraphPad Prism.
# [3] = tested on: K48 polyubiquitinated proteins; assay: Western blot of drug-treated worm lysate with K48-linkage specific polyubiquitin antibody; format: cell-based, Schistosoma mansoni; conditions: worm lysate after 48 hr of treatment
# Procedure: For drug treatment studies, 10 male adult worms (single or paired with females) were supplemented with either 0.1% DMSO or inhibitor (0.1% DMSO final). […]. After 48 hr, male parasites were separated from females using 0.25% tricaine in Basch Media 169, flash frozen in liquid nitrogen, and stored at −80°C until further processing. Male worm samples were homogenized with a pestle in 50 μL lysis buffer containing 2X sample buffer [0.471 M Tris (pH 6.7 with phosphoric acid), 20% glycerol, 5% SDS), protease inhibitor cocktail (Roche, cOmplete Mini, EDTA-free Tablets) and 10 mM DTT. The lysates were then sonicated on high for 5 min (30 sec on, 30 sec off) using a Bioruptor UCD-200. Lysates were centrifuged for 5 min at 10,000 g to remove debris. Total protein was measured using the Detergent Compatible Bradford Assay (Pierce). 50 μg of protein samples denatured in SDS Sample buffer (95°C for 5 min) were separated on a Bio-Rad 4–20% TGX Stain-Free gel along with Precision Plus Protein Dual Color Standards (Bio-Rad) as a marker. Proteins were then transferred to a nitrocellulose membrane (Bio-Rad). The membrane was blocked in a 1:5 solution of Li-Cor Odyssey Blocking buffer in PBST for 1 hr before being immunoblotted overnight at 4°C with 1:500 K48-linkage Specific Polyubiquitin Antibody (Cell Signaling Technology, 4289S) and 0.01 μg/mL mouse anti-actin antibody (1:10,000) (Developmental Studies Hybridoma Bank, JLA20) diluted in a 1:5 solution of Li-Cor Odyssey Blocking buffer in PBST. The membrane was washed 3x in TBST and then incubated in 1:5 Li-Cor Odyssey Blocking buffer containing the secondary antibodies (1:10,000 Li-Cor, 925–68071, goat anti-rabbit IRDye 680 RD, and 1:20,000 Li-Cor, 925–32280, goat anti-mouse IgM IRDye 800CW) for 1 hr at RT. The blot was washed in TBST 3x before being imaged on a LiCor Odyssey Infrared Imager.
# HepG2 cells = assay: HepG2 cytotoxicity assay (Cell Titer Glo 2.0); format: cell-based, human
# Procedure: HepG2 cells (ATCC) were plated at 2500 cells/well in 50 μL/well, dispersing cells using a 25g needle to break up clumps prior to plating. Plates were incubated for 24hr at 37C, 5% CO2. Following 24hr, 50 μL media containing 0.6% DMSO was added to a set of wells on one plate. The plate and Cell Titer Glo 2.0 reagent were brought to RT. A T=0 read was taken by adding 40 μL reagent/well, rocking the plate at 100 rpm for 2 min, then reading luminescence ~10 min later. […] 50 μL 2x concentrated compound was added to wells containing cells in 50 μL 24 hr after plating. Concentrations were tested in triplicate at following values: 30, 10, 3.3, 1.1, 0.37, 0.12, and 0.04 μM. Plates were incubated for 72 hr at 37C, 5% CO2. Following equilibration to room temperature, 40 μL undiluted reagent was added to each well, the plate rocked at 100 rpm for 2 min and then read for luminescent signal ~10 min later.
# Values are plotted in excel and the 50% point determined by interpolation. Values were revisualized in Prism.
# adult S. mansoni worms [4] = assay: Treatment of adult S. mansoni worms in culture with inhibitors (attachment to tissue culture substrate, morphology; single 10 μM and dose-response EC50); format: cell-based, Schistosoma mansoni; conditions: for EC50: read-out: S. mansoni EC50; for effect on adult parasites: inhibitors of human targets
# Procedure: Adult S. mansoni (NMRI strain) (6–7 weeks post-infection) worms were harvested from infected female Swiss Webster mice by hepatic portal vein perfusion using 37°C DMEM (Mediatech, Manassas, VA), 8% Horse Serum, and heparin.
# Roughly 5 adult worm pairs were placed in 3mL Basch medium in a 12-well culture vessel, and incubated at 37°C, 5% CO2 for the length of the experiment. Compound was administered at D0, D1, and D2, media and drug refreshed every 24 hr. Worms were then allowed to remain in culture until D5, where a final assessment of worm attachment to tissue culture substate was made by light microscopy. Observations on movement and morphology were also recorded. A negative control (0.1% DMSO) and positive control (PZQ; 10 μM in 0.1% DMSO) were included in each experiment, and each experiment was repeated in triplicate for validation. For compounds that caused complete detachment in replicate experiments, the treatment was expanded to three concentrations (10 μM, 5 μM, and 1 μM) following the same treatment schedule and controls as detailed above. […] Each titration experiment was performed in triplicate according to the treatment regimen described above, using DMSO and PZQ as appropriate controls. Morphologies and motility were assessed by light microscopy, and dose-response curves were calculated using the primary readout of parasite attachment to tissue culture substrate in GraphPad Prism. […]
# […] Values were calculated using Prism.
# H. sapiens p97 (P55072) = molecular target: T1, H. sapiens p97 (P55072) (Homo sapiens, UniProt P55072); assay: p97 ATPase activity, ATP consumption assay (Kinase-Glo), IC50 / counter screen; format: biochemical
# T1 construct: 6xHis (C); made in house; host or cells: E. coli BL21 (DE3)
# T1 sequence (P55072 whole entry): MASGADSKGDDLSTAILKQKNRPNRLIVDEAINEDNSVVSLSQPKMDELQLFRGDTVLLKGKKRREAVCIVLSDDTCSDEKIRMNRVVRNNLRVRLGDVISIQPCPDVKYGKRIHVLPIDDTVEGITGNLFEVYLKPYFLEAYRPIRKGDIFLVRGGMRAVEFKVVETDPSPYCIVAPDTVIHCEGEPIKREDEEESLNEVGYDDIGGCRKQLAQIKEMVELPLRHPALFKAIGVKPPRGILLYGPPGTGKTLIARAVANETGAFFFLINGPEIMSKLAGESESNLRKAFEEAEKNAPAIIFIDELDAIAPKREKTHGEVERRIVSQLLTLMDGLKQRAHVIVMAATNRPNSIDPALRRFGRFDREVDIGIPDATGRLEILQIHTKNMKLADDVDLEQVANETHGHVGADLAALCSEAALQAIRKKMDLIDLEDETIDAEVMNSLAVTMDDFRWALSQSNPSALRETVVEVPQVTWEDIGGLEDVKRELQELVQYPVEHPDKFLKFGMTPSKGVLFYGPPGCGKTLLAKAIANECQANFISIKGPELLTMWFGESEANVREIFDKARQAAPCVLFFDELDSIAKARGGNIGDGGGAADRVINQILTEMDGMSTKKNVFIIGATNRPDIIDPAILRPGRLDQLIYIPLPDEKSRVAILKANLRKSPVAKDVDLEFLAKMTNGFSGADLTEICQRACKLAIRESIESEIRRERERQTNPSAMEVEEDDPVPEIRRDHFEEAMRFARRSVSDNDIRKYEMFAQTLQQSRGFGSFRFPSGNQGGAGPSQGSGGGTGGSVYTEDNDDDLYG
# [5] = recombinant enzyme, Kinase-Glo, Fig. 3D, read-out: S. mansoni (IC50)
# [6] = recombinant enzyme, Kinase-Glo, Fig. 3D
structure (smiles),measurement,setting,value
Cc1cc(OCc2nnc(SC3CCCC3)n2-c2cccnc2)ccc1-c1ccc(S(C)(=O)=O)cc1 [NMS-873],parasite death in vitro,adult S. mansoni worms [1],sub-micromolar
same,IC50,[2]; [5],230 ± 75 nM
same,accumulation of K48 polyubiquitinated proteins by western blot,[3],accumulation of proteins targeted for proteasome-mediated degradation
"Cc1cc2c(C(N)=O)cccc2n1-c1nc2c(c(NCc3ccccc3)n1)COCC2 [CB-5083, reference compound]",parasite death in vitro,adult S. mansoni worms [1],sub-micromolar
same,Fold Selectivity,[2]; Suppl. Fig. 11D,2.0
same,selectivity for the schistosome enzyme over its human counterpart,[2]; S. mansoni vs H. sapiens p97 IC50,~ 2 fold
same,GI50,"HepG2 cells; HepG2, 72 hr, 50% growth inhibition normalized to time = 0, Suppl. Fig. 11A, read-out: GI50",310 nM
same,IC50,"HepG2 cells; HepG2, 72 hr, 50% growth inhibition relative to control, Suppl. Fig. 11A, read-out: IC50",410 nM
same,GI50,"HepG2 cells; HepG2, Suppl. Fig. 11E, read-out: HepG2 GI50",310 nM
same,IC50,"HepG2 cells; HepG2, Suppl. Fig. 11E, read-out: HepG2 IC50",410 nM
same,EC50,"adult S. mansoni worms [4]; worms, Suppl. Fig. 11E",360 nM
same,accumulation of K48 polyubiquitinated proteins by western blot,[3],accumulation of proteins targeted for proteasome-mediated degradation
"O=C(C#Cc1ccncc1)Nc1ccc2oc(-c3ccccn3)nc2c1 [Compound 739, N-(2-(pyridin-2-yl)benzo[d]oxazol-5-yl)-3-(pyridin-4-yl)propiolamide]",Fold Selectivity,[2]; Suppl. Fig. 9C,2.1
same,IC50,"[2]; schistosome p97 enzyme, read-out: IC50",150 nM
same,GI50,"HepG2 cells; Homo sapiens, HepG2, 72 h",850 nM
same,IC50,"HepG2 cells; Homo sapiens, HepG2, 72 h",1200 nM
same,GI50,"HepG2 cells; Homo sapiens, HepG2, read-out: HepG2 GI50",850 nM
same,IC50,"HepG2 cells; Homo sapiens, HepG2, read-out: HepG2 IC50",1200 nM
same,time to detachment of adult worms in culture,adult S. mansoni worms [4]; 10 μM,≤ 24 h
same,EC50,"adult S. mansoni worms [4]; Schistosoma mansoni, adult parasites, fraction of worms attached, 72 hours of drug treatment, in culture until D5, 50 μM - 10 nM, Suppl. Fig. 9C",1300 nM
same,effect on adult worms,"adult S. mansoni worms [4]; benzoxazole propiolamide series, 10 μM, treated 72 hours, monitored until D5",death of the parasites
same,accumulation of K48 polyubiquitinated proteins by western blot,[3],accumulation of K48 polyubiquitin moieties
same,IC50,"H. sapiens p97 (P55072); Hs p97, 100 μM – 1 nM, Suppl. Fig. 9C",320 ± 26 nM
"c1ccc(CNc2nc(NCc3ccccc3)c3ccccc3n2)cc1 [DbeQ, reference compound]",IC50,[2]; [5],12000 nM
same,effect on adult parasites,adult S. mansoni worms [4]; 10 μM,activity on the worms
same,accumulation of K48 polyubiquitinated proteins by western blot,[3],did not observe the same accumulation
same,IC50,H. sapiens p97 (P55072); [6],910 ± 390 nM
"COc1cccc2c(NCc3ccccc3)nc(-n3c(N)nc4ccccc43)nc12 [ML240, reference compound]",selectivity for the schistosome enzyme over its human counterpart,[2],~ 5 fold
same,IC50,[2]; [5],66 ± 9.7 nM
same,effect on adult parasites,adult S. mansoni worms [4]; 10 μM,killed parasites quickly
same,accumulation of K48 polyubiquitinated proteins by western blot,[3],did not observe the same accumulation
same,IC50,H. sapiens p97 (P55072); [6],330 ± 61 nM
"CC(C)N1CCN(CCNC2CCN(c3cccc(-c4cc5cc(F)ccc5[nH]4)c3)CC2)CC1 [UPCDC-30245, reference compound]",selectivity between schistosome and human p97,[2],selective in favor of the human enzyme; also recorded: decreased potency
same,IC50,[2]; [5],4100 nM
same,effect on adult parasites,adult S. mansoni worms [4]; 10 μM,effective
same,accumulation of K48 polyubiquitinated proteins by western blot,[3],did not see significant increases in K48 abundance
same,IC50,H. sapiens p97 (P55072); [6],970 ± 67 nM
CC(C)C[C@H](NC(=O)[C@H](Cc1ccccc1)NC(=O)c1cnccn1)B(O)O [bortezomib],parasite death in vitro,adult S. mansoni worms [1],killed
"CC1(C)C(N(O)C(=O)Nc2ccc(Cl)cc2)N(c2ccc(Cl)cc2)C(=O)N1CC(=O)N/N=C/C=C/c1ccc([N+](=O)[O-])o1 (stereo not shown) [Eeyarestatin I, reference compound]",effect on adult parasites,adult S. mansoni worms [4]; 10 μM,effective
same,accumulation of K48 polyubiquitinated proteins by western blot,[3],did not see significant increases in K48 abundance
